Data as given in PubChem BioAssay AID200 (DTP/NCI, 2004).
Values joined by “and” are separate entries in the source; they are usually repeats but may differ in a detail not shown here. Equal values may be shown once. Inconclusive results and toxic doses are left out. How the source made its calls: active means survival T/C of 150% or more; inactive means T/C below 125% in these data.

Test system: B6C3F1 mice, B16 melanoma ip, median survival T/C
Test: NCI In Vivo Anticancer Drug Screen. Data for tumor model B16 Melanoma (intraperitoneal) in B6C3F1 mice
Details: endpoint: median survival time, schedule: Q01DX009 (ip), higher = longer survival
Description: The antitumor activity of compounds was measured in mice bearing transplantable tumors. Survival or tumor size were measured and the results are expressed as the measurement made in the treated group (T) divided by the measurement made in the vehicle treated control group (C). The tumor model used in this assay is B16 Melanoma (intraperitoneal) in B6C3F1 mice

[1] = dose: 6.25 mg/kg/injection, vehicle: saline with Tween-80
[2] = dose: 12.5 mg/kg/injection, vehicle: saline with Tween-80
[3] = dose: 25.0 mg/kg/injection, vehicle: saline with Tween-80
[4] = dose: 1.56 mg/kg/injection, vehicle: saline
[5] = dose: 3.12 mg/kg/injection, vehicle: saline
[6] = dose: 6.25 mg/kg/injection, vehicle: saline
[7] = dose: 12.5 mg/kg/injection, vehicle: saline
[8] = dose: 25.0 mg/kg/injection, vehicle: saline
[9] = dose: 3.12 mg/kg/injection, vehicle: saline with Tween-80
[10] = dose: 50.0 mg/kg/injection, vehicle: saline
[11] = dose: 3.0 mg/kg/injection, vehicle: saline with Tween-80
[12] = dose: 6.0 mg/kg/injection, vehicle: saline with Tween-80
[13] = dose: 100.0 mg/kg/injection, vehicle: saline
[14] = dose: 50.0 mg/kg/injection, vehicle: saline with Tween-80
[15] = dose: 100.0 mg/kg/injection, vehicle: saline with Tween-80
[16] = dose: 200.0 mg/kg/injection, vehicle: saline with Tween-80

Measured: T/C

O=C1CC(c2ccc(Cl)cc2Cl)Oc2ccc(Cl)cc21 (configuration not stated)
inactive: dose: 3.13 mg/kg/injection, vehicle: saline with Tween-80 100 % of control | [1] 93 % of control | [2] 88 % of control | [3] 100 % of control

OCCN1CCN(CC/C=C2/c3ccccc3Sc3ccc(Cl)cc32)CC1
inactive: [4] 101 % of control | [5] 102 % of control | [6] 103 % of control and 105 % of control | [7] 93 % of control and 106 % of control | [8] 100 % of control

CCCCCCCCCCCCN1C(C)=CS/C1=C\C=C\c1scc(C)[n+]1CCCCCCCCCCCC
inactive: dose: 0.78 mg/kg/injection, vehicle: saline with Tween-80 99 % of control and 108 % of control | dose: 1.56 mg/kg/injection, vehicle: saline with Tween-80 99 % of control and 105 % of control | [9] 108 % of control

O=C(O)C(O)C(O)C1[O][Sb][O]C1C(=O)O (configuration not stated)
inactive: [6] 96 % of control | [7] 97 % of control | [8] 104 % of control | [10] 107 % of control

CCCCNc1ccc2nnc(C)n2n1
inactive: dose: 50.0 mg/kg/injection, vehicle: DMSO 98 % of control and 102 % of control | dose: 100.0 mg/kg/injection, vehicle: DMSO 110 % of control and 92 % of control | dose: 200.0 mg/kg/injection, vehicle: DMSO 92 % of control

Cc1cnc(/C=N\NC(N)=S)c2cccc(N)c12
inactive: [11] 108 % of control | [12] 116 % of control

CCN(CC)CCNc1ccc(C)c2sc3ccccc3c(=O)c12
inactive: [6] 103 % of control | [7] 100 % of control | [8] 104 % of control | [10] 104 % of control | [13] 118 % of control

Nc1ncnc2c1ncn2C1OC(CO)C(O)C1O (configuration not stated)
inactive: [4] 94 % of control | [5] 94 % of control | [6] 96 % of control | [7] 107 % of control | [8] 63 % of control | [10] 45 % of control | [13] 37 % of control

N#Cc1ccc(NN=O)nc1
inactive: dose: 3.12 mg/kg/injection, vehicle: water 102 % of control | dose: 3.13 mg/kg/injection, vehicle: water 119 % of control | dose: 4.5 mg/kg/injection, vehicle: saline 117 % of control | dose: 6.25 mg/kg/injection, vehicle: water 113 % of control and 122 % of control | dose: 7.5 mg/kg/injection, vehicle: saline 108 % of control | dose: 20.83 mg/kg/injection, vehicle: saline 123 % of control | dose: 34.72 mg/kg/injection, vehicle: saline 120 % of control

Nc1nc(N)c2c(Cl)c(CNc3ccc(Cl)c(Cl)c3)ccc2n1
inactive: [9] 121 % of control | [1] 106 % of control | [2] 123 % of control

O=S(=O)(c1ccccc1)N1CN2CCN(C2)C1
inactive: [2] 96 % of control | [3] 94 % of control | [14] 108 % of control | [15] 112 % of control | [16] 119 % of control | dose: 400.0 mg/kg/injection, vehicle: saline with Tween-80 122 % of control

O=S1(=O)CCCO1
inactive: [7] 95 % of control | [8] 99 % of control | [10] 94 % of control

N=C(N)c1nn(C2OC(CO)C(O)C2O)c2nc[nH]c(=O)c12 (configuration not stated)
inactive: dose: 2.25 mg/kg/injection, vehicle: Klucel (hydroxypropylcellulose) (HPC) 92 % of control and 102 % of control | dose: 3.12 mg/kg/injection, vehicle: Klucel + Tween-80 99 % of control | dose: 3.75 mg/kg/injection, vehicle: Klucel (hydroxypropylcellulose) (HPC) 112 % of control and 101 % of control | dose: 6.25 mg/kg/injection, vehicle: Klucel (hydroxypropylcellulose) (HPC) 112 % of control and 90 % of control | dose: 10.42 mg/kg/injection, vehicle: Klucel (hydroxypropylcellulose) (HPC) 92 % of control | dose: 17.36 mg/kg/injection, vehicle: Klucel (hydroxypropylcellulose) (HPC) 110 % of control and 98 % of control

O=c1ccc2ccccc2o1
inactive: dose: 7.5 mg/kg/injection, vehicle: saline with Tween-80 116 % of control and 118 % of control | dose: 15.0 mg/kg/injection, vehicle: saline with Tween-80 117 % of control and 120 % of control | dose: 30.0 mg/kg/injection, vehicle: saline with Tween-80 111 % of control and 112 % of control | dose: 60.0 mg/kg/injection, vehicle: saline with Tween-80 120 % of control and 100 % of control | dose: 120.0 mg/kg/injection, vehicle: saline with Tween-80 90 % of control and 96 % of control

CC(O)CNCCNc1ccc(NCCNCC(C)O)c2c1C(=O)c1c(O)ccc(O)c1C2=O (configuration not stated)
active: dose: 1.0 mg/kg/injection, vehicle: distilled water + Tween-80 169 % of control | dose: 2.0 mg/kg/injection, vehicle: distilled water + Tween-80 194 % of control | dose: 4.0 mg/kg/injection, vehicle: distilled water + Tween-80 221 % of control | dose: 8.0 mg/kg/injection, vehicle: distilled water + Tween-80 180 % of control

CSc1nc(N)cc(NC(=O)CCl)n1
inactive: dose: 25.0 mg/kg/injection, vehicle: Klucel (hydroxypropylcellulose) (HPC) 102 % of control | dose: 50.0 mg/kg/injection, vehicle: Klucel (hydroxypropylcellulose) (HPC) 100 % of control | dose: 100.0 mg/kg/injection, vehicle: Klucel (hydroxypropylcellulose) (HPC) 92 % of control

CC1(C)CC1(Br)Br
inactive: [1] 100 % of control | [2] 93 % of control | [3] 104 % of control | [14] 97 % of control | [15] 100 % of control | [16] 92 % of control

CN(N=O)C(=O)N[C@@H](C=O)[C@@H](O)[C@H](O)[C@H](O)CO
inactive: dose: 12.5 mg/kg/injection, vehicle: other 115 % of control | dose: 25.0 mg/kg/injection, vehicle: other 120 % of control

CN=C(N)N/N=C(\c1ccccc1)c1ccc(Br)cc1
inactive: dose: 1.5 mg/kg/injection, vehicle: saline with Tween-80 103 % of control | [11] 107 % of control | [12] 97 % of control | dose: 12.0 mg/kg/injection, vehicle: saline with Tween-80 96 % of control

COC(=O)[C@@]12OC[C@]34[C@H]([C@@H](O)[C@@H]1O)[C@@]1(C)CC(=O)C(O)=C(C)[C@@H]1C[C@H]3OC(=O)[C@H](OC(=O)/C=C(\C)C1(C)CO1)[C@@H]24 (some centres not stated)
inactive: dose: 0.01 mg/kg/injection, vehicle: saline + alcohol 108 % of control | dose: 0.03 mg/kg/injection, vehicle: saline + alcohol 116 % of control

CN=S(=O)(OCCCCCOS(=O)(=NC)c1ccccc1)c1ccccc1 (configuration not stated)
112 % of control and 201 % of control: [2]
active: [15] 198 % of control
inactive: [3] 119 % of control
